From US4009166A, “Pyrido(2,3-d) pyrimidinones” (Hisamitsu Pharmaceutical Co., Inc., priority 1974, dated 1977)
Structures can show the parent of a compound that is named as a salt. Where two headings read alike, the source gives them in different places.

Columns and labels:
[1] = test system: carrageenin edema in Wistar-strain male rats; experiment: Anti-inflammatory effect (carrageenin edema of the hind paw); assay type: in vivo; settings: for inhibition in vivo at 10 mg/kg / inhibition in vivo at 50 mg/kg: Rattus norvegicus, po; for inhibition in vivo at 10 mg/kg: read-out: anti-inflammatory effect dose(mg/kg) 10 (inhibition percentage of carrageenin edema); for inhibition in vivo at 50 mg/kg: read-out: anti-inflammatory effect dose(mg/kg) 50 (inhibition percentage of carrageenin edema)
Description: 2. Anti-inflammatory effect
A group of five Wistar-strain male rats (100-150 g) were orally administered with each test compound suspended in 0.5% tragacanth-saline solution. After 30 minutes 0.5-1.0% carrageenin suspended in the water for injection was injected subcutaneously to a hind paw. After 3 hours the carrageenin edema was measured by volume and the inhibition percentage was determined with respect to the results for the control animals. The inhibition percentages were shown with the notations as follows: […]

[2] = test system: writhing syndrome in dd-strain male mice; experiment: Analgetic effect (acetic acid writhing syndrome); assay type: in vivo; settings: Mus musculus, po, orally, 0.6% acetic acid writhing, Litchfield-Wilcoxon, read-out: analgetic effect ED50 (95 % C.L.)
Description: 3. Analgetic effect Each test compound suspended in 0.5% tragacanth-saline solution was orally administered to dd-strain male mice (18-20 g). After one hour 0.6% acetic acid solution was intraperitoneally injected in a volume of 0.1 ml/10 g.

dd-strain male mice = settings: deaths 72 hours after administration
Description: The lethal dose was estimated from the death of animals 72 hours after administration.

[3] = test system: righting reflex of dd-strain male mice; experiment: Central nervous system depressive effect (disappearance of righting reflex); assay type: in vivo; settings: Mus musculus, ip, read-out: C N S depressive effect (dose required for the disappearance of righting reflex)
Description: 4. Central nervous system depressive effect
Each test compound suspended in 0.5% tragacanth-saline solution was injected intraperitoneally to dd-strain male mice (16-24 g). The disappearance of righting reflex was observed under noiseless circumstances. The dose required for the disappearance of righting reflex is indicated with the following notations: […]

[4] = 10 mg/kg orally, rats, edema volume 3 hours after carrageenin
[5] = 50 mg/kg orally, rats, edema volume 3 hours after carrageenin

Compound | inhibition in vivo at 10 mg/kg [1, 4] [%] | inhibition in vivo at 50 mg/kg [1, 5] [%] | ED50 [2] [mg/kg] | acute toxicity i.p. (lethal dose) (dd-strain male mice) [mg/kg] | acute toxicity p.o. (lethal dose) (dd-strain male mice) [mg/kg] | minimal effective dose ([3]; intraperitoneally, mice) [mg/kg] | inhibition in vivo at 10 mg/kg ([1]; 3 h) [%] | inhibition in vivo at 50 mg/kg ([1]; 3 h) [%] | minimal effective dose [3] [mg/kg] | anti-inflammatory effect dose(mg/kg) 10 (inhibition percentage of carrageenin edema) [1, 4]
CC(C)N1CN(c2cccc(Cl)c2)c2ncccc2C1=O | 16 to 30 | 31 to 45 | > 100 |  |  |  |  |  |  | 
CC(C)N1CN(c2cccc([N+](=O)[O-])c2)c2ncccc2C1=O | 46 to 60 | 46 to 60 | 4.7 | > 1000 | < 2000 | 100 to 300 |  |  |  | 
CC(C)N1Cc2cccnc2N(c2cccc(F)c2)C1=O | 31 to 45 | > 61 | 4.5 |  |  | 3 to 10 |  |  |  | 
CC(C)N1Cc2cccnc2N(c2cccc(C(F)(F)F)c2)C1=O | < 15 | 46 to 60 | 6.7 | > 1000 | 2000 | 10 to 30 |  |  |  | 
CC(C)N1Cc2cccnc2N(c2ccc(Cl)c(Cl)c2)C1=O | 46 to 60 | > 61 | 16.3 | 1000 | 2000 | 3 to 10 |  |  |  | 
CN1C(=O)CN=C(c2ccccc2)c2cc(Cl)ccc21 [diazepam, reference compound] |  |  |  |  |  |  | < 15 | 16 to 30 | 30 to 100 | 
COCN1CN(c2cccc(Cl)c2)c2ncccc2C1=O [drawing 119/CH2 OCH3] | 16 to 30 | 16 to 30 | > 100 |  |  |  |  |  |  | 
CCN1CN(c2cccc(Br)c2)c2ncccc2C1=O [drawing 121/C2 H5] |  | 31 to 45 | > 100 | > 1000 |  | 30 to 100 |  |  |  | 
CN1CN(c2cccc(Br)c2)c2ncccc2C1=O [drawing 121/CH3] |  | < 15 | > 100 | > 1000 |  | 30 to 100 |  |  |  | 
CCN1CN(c2cccc(C(F)(F)F)c2)c2ncccc2C1=O [drawing 122/C2 H5] | 16 to 30 | > 61 | > 100 | > 1000 |  | 30 to 100 |  |  |  | 
CN1CN(c2cccc(C(F)(F)F)c2)c2ncccc2C1=O [drawing 122/CH3] | 16 to 30 | < 15 |  |  |  |  |  |  |  | 
CCN1CN(c2cccc([N+](=O)[O-])c2)c2ncccc2C1=O [drawing 123/C2 H5] | 31 to 45 | > 61 | 1.95 | 1000 | 2000 | 30 to 100 |  |  |  | 
COCN1CN(c2cccc([N+](=O)[O-])c2)c2ncccc2C1=O [drawing 123/CH2 OCH3 . HCl] | 46 to 60 | 46 to 60 | 2.7 |  | < 2000 |  |  |  |  | 
CN1CN(c2cccc([N+](=O)[O-])c2)c2ncccc2C1=O [drawing 123/CH3, 1-(m-nitrophenyl)-3-methyl-4-oxo-1,2,3,4-tetrahydropyrido[2,3-d]pyrimidine] | < 15 | 16 to 30 | 22 | > 1000 |  | > 1000 |  |  |  | 
CCN1Cc2cccnc2N(c2ccccc2)C1=O [drawing 126/C2 H5] | 46 to 60 | 46 to 60 | 2.1 | 300 |  | 3 to 10 |  |  |  | 
CN1Cc2cccnc2N(c2ccccc2)C1=O [drawing 126/CH3] | 31 to 45 | 46 to 60 | 13 |  |  | 3 to 10 |  |  |  | 
CCN1Cc2cccnc2N(c2cccc(F)c2)C1=O [drawing 127/C2 H5] | > 61 | > 61 | 4.4 |  |  | < 3 |  |  |  | 
CCN1Cc2cccnc2N(c2ccc(F)cc2)C1=O [drawing 129/C2 H5] | 46 to 60 | 46 to 60 | 4.9 |  |  | 10 to 30 |  |  |  | 
CN1Cc2cccnc2N(c2ccccc2Cl)C1=O [drawing 130/CH3] |  | 16 to 30 | 44 |  |  | 30 to 100 |  |  |  | 
C=CCN1Cc2cccnc2N(c2cccc(Cl)c2)C1=O [drawing 132/CH2 CHCH2] | 46 to 60 | 46 to 60 | 1.2 |  |  | 3 to 10 |  |  |  | 
COCN1Cc2cccnc2N(c2cccc(Cl)c2)C1=O [drawing 132/CH2 OCH3] | 46 to 60 | > 61 | 1.6 |  |  | 3 to 10 |  |  |  | 
CN1Cc2cccnc2N(c2cccc(Cl)c2)C1=O [drawing 132/CH3, 1-(m-chlorophenyl)-3-methyl-2-oxo-1,2,3,4-tetrahydropyrido[2,3-d]pyrimidine] | 46 to 60 | > 61 | 13 |  |  | < 3 |  |  |  | 
CCN1Cc2cccnc2N(c2ccc(Cl)cc2)C1=O [drawing 133/C2 H5] |  | 46 to 60 | 49 |  |  | < 3 |  |  |  | + ++
CCN1Cc2cccnc2N(c2cccc(C(F)(F)F)c2)C1=O [drawing 135/C2 H5, 1-(m-trifluoromethylphenyl)-3-ethyl-2-oxo-1,2,3,4-tetrahydropyrido[2,3-d]pyrimidine] | 31 to 45 | 46 to 60 | 6.3 |  |  | 3 to 10 |  |  |  | 
O=C(O)CN1Cc2cccnc2N(c2cccc(C(F)(F)F)c2)C1=O [drawing 135/CH2 COOH] |  |  | > 100 | > 1000 | > 2000 | > 1000 |  |  |  | 
COCN1Cc2cccnc2N(c2cccc(C(F)(F)F)c2)C1=O [drawing 135/CH2 OCH3] |  | 31 to 45 | 8.1 |  |  | 10 to 30 |  |  |  | 
CCN1Cc2cccnc2N(c2ccc(Cl)c(Cl)c2)C1=O [drawing 137/C2 H5] | 46 to 60 | 46 to 60 | 1.3 |  |  | < 3 |  |  |  | 
O=C1N(CCF)Cc2cccnc2N1c1ccc(Cl)c(Cl)c1 [drawing 137/CH2 CH2 F] | > 61 |  | 1 |  |  | 3 to 10 |  |  |  | 
Cc1ccccc1-n1c(C)nc2ccccc2c1=O [methaqualone, reference compound] |  |  |  |  |  |  |  |  | 10 to 30 | 
CCCCC1C(=O)N(c2ccccc2)N(c2ccccc2)C1=O [phenylbutazone, reference compound] | < 15 | 31 to 45 | 290 |  |  | 300 to 1000 |  |  |  | 
